# Read-outs that look alike come from different tables or passages of the source.
# System: recombinant NL-Rluc virus
# Experiment: Inhibition of HIV replication (NL-RLuc luciferase reporter virus, MT-2 cells)
# Assay type: cell-based
# Conditions: Human immunodeficiency virus 1, MT2, 120 h
SMILES,EC50 (read-out: Activity) [µM],EC50 (read-out: EC50 μM) [µM]
"Cc1nc2cc(C(=O)NCc3ccccc3C(F)(F)F)nn2c(-c2cc(F)c3c(c2C)CCCO3)c1[C@H](OC(C)(C)C)C(=O)O [Example 125, (2S)-2-(tert-butoxy)-2-(7-(8-fluoro-5-methylchroman-6-yl)-5-methyl-2-((2-(trifluoromethyl)benzyl)carbamoyl)pyrazolo[1,5-a]pyrimidin-6-yl)acetic acid]",< 0.1,–
"Cc1nc2cc(C(=O)NCc3ccc(Cl)c(Cl)c3)nn2c(-c2cc(F)c3c(c2C)CCCO3)c1[C@H](OC(C)(C)C)C(=O)O [Example 109, (2S)-2-(tert-butoxy)-2-(2-((3,4-dichlorobenzyl)carbamoyl)-7-(8-fluoro-5-methylchroman-6-yl)-5-methylpyrazolo[1,5-a]pyrimidin-6-yl)acetic acid]",< 0.1,–
"COc1ccc(CNC(=O)c2cc3nc(C)c([C@H](OC(C)(C)C)C(=O)O)c(-c4cc(F)c5c(c4C)CCCO5)n3n2)cc1OC [Example 41, (2S)-2-(tert-butoxy)-2-(2-((3,4-dimethoxybenzyl)carbamoyl)-7-(8-fluoro-5-methylchroman-6-yl)-5-methylpyrazolo[1,5-a]pyrimidin-6-yl)acetic acid]",0.1 to 1,–
"Cc1nc2cc(C(=O)N(Cc3ccccc3)C(C)C)nn2c(-c2cc(F)c3c(c2C)CCCO3)c1[C@H](OC(C)(C)C)C(=O)O [Example 113, (2S)-2-(2-(benzyl(isopropyl)carbamoyl)-7-(8-fluoro-5-methylchroman-6-yl)-5-methylpyrazolo[1,5-a]pyrimidin-6-yl)-2-(tert-butoxy)acetic acid]",< 0.1,–
Cc1nc2cc(C(=O)NCCCn3ccnc3)nn2c(-c2cc(F)c3c(c2C)CCCO3)c1[C@H](OC(C)(C)C)C(=O)O [Example 51],> 1,–
"Cc1nc2cc(C(=O)NCC3CCN(C(=O)C4CC4)CC3)nn2c(-c2cc(F)c3c(c2C)CCCO3)c1[C@H](OC(C)(C)C)C(=O)O [Example 58, (2S)-2-(tert-butoxy)-2-(2-(((1-(cyclopropanecarbonyl)piperidin-4-yl)methyl)carbamoyl)-7-(8-fluoro-5-methylchroman-6-yl)-5-methylpyrazolo[1,5-a]pyrimidin-6-yl)acetic acid]",> 1,–
"Cc1nc2cc(C(=O)NCCOC(C)C)nn2c(-c2cc(F)c3c(c2C)CCCO3)c1[C@H](OC(C)(C)C)C(=O)O [Example 102, (2S)-2-(tert-butoxy)-2-(7-(8-fluoro-5-methylchroman-6-yl)-2-((2-isopropoxyethyl)carbamoyl)-5-methylpyrazolo[1,5-a]pyrimidin-6-yl)acetic acid]",< 0.1,–
"Cc1cc(CNC(=O)c2cc3nc(C)c(C(OC(C)(C)C)C(=O)O)c(-c4cc(F)c5c(c4C)CCCO5)n3n2)ccc1F (stereo in doubt) [Example 3, (2S)-2-(tert-Butoxy)-2-(2-((4-fluoro-3-methylbenzyl)carbamoyl)-7-(8-fluoro-5-methylchroman-6-yl)-5-methylpyrazolo[1,5-a]pyrimidin-6-yl)acetic acid]",< 0.1,0.032
"Cc1cc(CNC(=O)c2cc3nc(C)c([C@H](OC(C)(C)C)C(=O)O)c(-c4ccc5c(c4Cl)NCCO5)n3n2)ccc1F [Example 141, (2S)-2-(tert-Butoxy)-2-(7-(5-chloro-3,4-dihydro-2H-benzo[b][1,4]oxazin-6-yl)-2-((4-fluoro-3-methylbenzyl)carbamoyl)-5-methylpyrazolo[1,5-a]pyrimidin-6-yl)acetic acid]",0.1 to 1,0.114
"COc1ccccc1CNC(=O)c1cc2nc(C)c([C@H](OC(C)(C)C)C(=O)O)c(-c3cc(F)c4c(c3C)CCCO4)n2n1 [Example 42, (2S)-2-(tert-butoxy)-2-(7-(8-fluoro-5-methylchroman-6-yl)-2-((2-methoxybenzyl)carbamoyl)-5-methylpyrazolo[1,5-a]pyrimidin-6-yl)acetic acid]",< 0.1,–
"Cc1cc(CNC(=O)c2cc3nc(C)c([C@H](OC(C)(C)C)C(=O)O)c(N4CCC(C)(C)CC4)n3n2)ccc1F [Example 151, (S)-2-(tert-Butoxy)-2-(7-(4,4-dimethylpiperidin-1-yl)-2-((4-fluoro-3-methylbenzyl)carbamoyl)-5-methylpyrazolo[1,5-a]pyrimidin-6-yl)acetic acid]",< 0.1,–
"COc1ccc(CCNC(=O)c2cc3nc(C)c([C@H](OC(C)(C)C)C(=O)O)c(-c4cc(F)c5c(c4C)CCCO5)n3n2)cc1 [Example 65, (2S)-2-(tert-butoxy)-2-(7-(8-fluoro-5-methylchroman-6-yl)-2-((4-methoxyphenethyl)carbamoyl)-5-methylpyrazolo[1,5-a]pyrimidin-6-yl)acetic acid]",< 0.1,–
"Cc1nc2cc(C(=O)N3CCN(c4ccccc4)CC3)nn2c(-c2cc(F)c3c(c2C)CCCO3)c1[C@H](OC(C)(C)C)C(=O)O [Example 93, (2S)-2-(tert-butoxy)-2-(7-(8-fluoro-5-methylchroman-6-yl)-5-methyl-2-(4-phenylpiperazine-1-carbonyl)pyrazolo[1,5-a]pyrimidin-6-yl)acetic acid]",< 0.1,–
"Cc1nc2cc(C(=O)N3CCC(N4CCCCC4)CC3)nn2c(-c2cc(F)c3c(c2C)CCCO3)c1[C@H](OC(C)(C)C)C(=O)O [Example 95, (2S)-2-(2-([1,4′-bipiperidine]-1′-carbonyl)-7-(8-fluoro-5-methylchroman-6-yl)-5-methylpyrazolo[1,5-a]pyrimidin-6-yl)-2-(tert-butoxy)acetic acid]",> 1,–
"COc1ccc(CNC(=O)c2cc3nc(C)c([C@H](OC(C)(C)C)C(=O)O)c(-c4cc(F)c5c(c4C)CCCO5)n3n2)cc1 [Example 110, (2S)-2-(tert-butoxy)-2-(7-(8-fluoro-5-methylchroman-6-yl)-2-((4-methoxybenzyl)carbamoyl)-5-methylpyrazolo[1,5-a]pyrimidin-6-yl)acetic acid]",< 0.1,–
"CCc1ccc(CN(C)C(=O)c2cc3nc(C)c([C@H](OC(C)(C)C)C(=O)O)c(-c4cc(F)c5c(c4C)CCCO5)n3n2)cc1 [Example 21, (2S)-2-(tert-butoxy)-2-(2-((4-ethylbenzyl)(methyl)carbamoyl)-7-(8-fluoro-5-methylchroman-6-yl)-5-methylpyrazolo[1,5-a]pyrimidin-6-yl)acetic acid]",< 0.1,–
"Cc1nc2cc(C(=O)NCc3ccc(C(F)(F)F)cc3)nn2c(-c2cc(F)c3c(c2C)CCCO3)c1[C@H](OC(C)(C)C)C(=O)O [Example 66, (2S)-2-(tert-butoxy)-2-(7-(8-fluoro-5-methylchroman-6-yl)-5-methyl-2-((4-(trifluoromethyl)benzyl)carbamoyl)pyrazolo[1,5-a]pyrimidin-6-yl)acetic acid]",< 0.1,–
"Cc1nc2cc(C(=O)NS(=O)(=O)c3ccccc3)nn2c(-c2cc(F)c3c(c2C)CCCO3)c1[C@H](OC(C)(C)C)C(=O)O [Example 13, (2S)-2-(tert-butoxy)-2-(7-(8-fluoro-5-methylchroman-6-yl)-5-methyl-2-((phenylsulfonyl)carbamoyl)pyrazolo[1,5-a]pyrimidin-6-yl)acetic acid]",> 1,40
"CCCCNC(=O)c1cc2nc(C)c([C@H](OC(C)(C)C)C(=O)O)c(-c3cc(F)c4c(c3C)CCCO4)n2n1 [Example 114, (2S)-2-(tert-butoxy)-2-(2-(butylcarbamoyl)-7-(8-fluoro-5-methylchroman-6-yl)-5-methylpyrazolo[1,5-a]pyrimidin-6-yl)acetic acid]",< 0.1,–
"Cc1nc2cc(C(=O)NCc3ccc(S(N)(=O)=O)cc3)nn2c(-c2cc(F)c3c(c2C)CCCO3)c1[C@H](OC(C)(C)C)C(=O)O [Example 53, (2S)-2-(tert-butoxy)-2-(7-(8-fluoro-5-methylchroman-6-yl)-5-methyl-2-((4-sulfamoylbenzyl)carbamoyl)pyrazolo[1,5-a]pyrimidin-6-yl)acetic acid]",> 1,3.19
"COc1cc(CNC(=O)c2cc3nc(C)c([C@H](OC(C)(C)C)C(=O)O)c(-c4cc(F)c5c(c4C)CCCO5)n3n2)ccc1F [Example 35, (2S)-2-(tert-butoxy)-2-(2-((4-fluoro-3-methoxybenzyl)carbamoyl)-7-(8-fluoro-5-methylchroman-6-yl)-5-methylpyrazolo[1,5-a]pyrimidin-6-yl)acetic acid]",< 0.1,–
"Cc1nc2cc(C(=O)N(C)Cc3ccccc3)nn2c(-c2cc(F)c3c(c2C)CCCO3)c1[C@H](OC(C)(C)C)C(=O)O [Example 33, (2S)-2-(2-(benzyl(methyl)carbamoyl)-7-(8-fluoro-5-methylchroman-6-yl)-5-methylpyrazolo[1,5-a]pyrimidin-6-yl)-2-(tert-butoxy)acetic acid]",< 0.1,–
"Cc1nc2cc(C(=O)NCCC(C)C)nn2c(-c2cc(F)c3c(c2C)CCCO3)c1[C@H](OC(C)(C)C)C(=O)O [Example 49, (2S)-2-(tert-butoxy)-2-(7-(8-fluoro-5-methylchroman-6-yl)-2-(isopentylcarbamoyl)-5-methylpyrazolo[1,5-a]pyrimidin-6-yl)acetic acid]",< 0.1,–
"Cc1nc2cc(C(=O)N3CCc4ccccc4C3)nn2c(-c2cc(F)c3c(c2C)CCCO3)c1[C@H](OC(C)(C)C)C(=O)O [Example 79, (2S)-2-(tert-butoxy)-2-(7-(8-fluoro-5-methylchroman-6-yl)-5-methyl-2-(1,2,3,4-tetrahydroisoquinoline-2-carbonyl)pyrazolo[1,5-a]pyrimidin-6-yl)acetic acid]",< 0.1,–
Cc1nc2cc(C(=O)NCCCc3ccccc3)nn2c(-c2cc(F)c3c(c2C)CCCO3)c1[C@H](OC(C)(C)C)C(=O)O [Example 50],< 0.1,–
"Cc1nc2cc(C(=O)N(C)CCCn3ccnc3)nn2c(-c2cc(F)c3c(c2C)CCCO3)c1[C@H](OC(C)(C)C)C(=O)O [Example 37, (2S)-2-(2-((3-(1H-imidazol-1-yl)propyl)(methyl)carbamoyl)-7-(8-fluoro-5-methylchroman-6-yl)-5-methylpyrazolo[1,5-a]pyrimidin-6-yl)-2-(tert-butoxy)acetic acid]",> 1,20
"Cc1nc2cc(C(=O)NCc3cc(Cl)cc(Cl)c3)nn2c(-c2cc(F)c3c(c2C)CCCO3)c1[C@H](OC(C)(C)C)C(=O)O [Example 118, (2S)-2-(tert-butoxy)-2-(2-((3,5-dichlorobenzyl)carbamoyl)-7-(8-fluoro-5-methylchroman-6-yl)-5-methylpyrazolo[1,5-a]pyrimidin-6-yl)acetic acid]",< 0.1,–

# From patent publication US8791108B2, “Inhibitors of human immunodeficiency virus replication” (priority 2011, dated 2014)
